Counter-ions that a name gives are not always drawn. Like-named read-outs stand apart in the source and are kept apart here.
Experiments:
Assay type in all cases: physicochemical
[1] = Dynamic vapor sorption/desorption (moisture balance); settings: for post-moisture balance XRPD (resulting material): after sorption/desorption cycle 5-95-5% RH; for weight loss on desorption: from 95 to 5% RH
Experimental: Data were collected on a VTI SGA-100 moisture balance system. For sorption isotherms, a sorption range of about 5 to about 95% relative humidity (RH) and a desorption range of about 95 to about 5% RH in 10% RH increments were used for analysis. The samples were not dried prior to analysis. Equilibrium criteria used for analysis were less than 0.0100% weight change in 5 minutes with a maximum equilibration time of 3 hours if the weight criterion was not met. Data were not corrected for the initial moisture content of the samples.

[2] = Stress experiments (temperature or relative humidity, XRPD after stress); settings: 75% RH, ambient temperature, 2 and 4 days
Experimental: Stress Experiments. Solids were stressed under different temperature or relative humidity (RH) environments for a measured time period. Specific RH values were achieved by placing the sample inside sealed chambers containing saturated salt solutions. The salt solutions were selected and prepared following an ASTM standard procedure. Samples were analyzed by XRPD immediately after removal from the stress environment.
(§1) X-ray powder diffraction analyses were performed on an Inel XRG-3000 diffractometer, equipped with a curved position-sensitive detector with a […] of 120°. Real time data was collected using Cu Kα radiation starting at approximately 4 ° 2θ at a resolution of 0.03 ° 2θ. The tube voltage and amperage were set to 40 kV and 30 mA, respectively. […] Samples were prepared for analysis by packing them into thin-walled glass capillaries. Each capillary was mounted onto a goniometer head that is motorized to permit spinning of the capillary during data acquisition. Instrument calibration was performed daily using a silicon reference standard.

[3] = Solubility measurements (solvent aliquot addition, visual inspection); settings: for solubility: water, thermodynamic from solid, WATER, read-out: APPROXIMATE SOLUBILITY
Experimental: A weighed sample was treated with aliquots of the test solvent at room temperature or elevated temperature. Complete dissolution of the test material was determined by visual inspection. Solubility was estimated based on the total solvent used to provide complete dissolution. The actual solubility may be greater than the value calculated because of the use of solvent aliquots that were too large or due to a slow rate of dissolution. […] If complete dissolution was achieved as a result of only one aliquot addition, the solubility is expressed as “greater than.”

[4] = Mechanical stress studies (compression, grinding, milling; XRPD after stress)
Experimental: Grinding. […] […] The solids were isolated and analyzed.
as §1

CC(C)(C)c1cc(NC(=O)Nc2ccc(-c3cn4c(n3)sc3cc(OCCN5CCOCC5)ccc34)cc2)no1 [Form B of the HCl salt of Compound B1, N-(5-tert-butyl-isoxazol-3-yl)-N′-{4-[7-(2-morpholin-4-yl-ethoxy)imidazo[2,1-b][1,3]benzothiazol-2-yl]phenyl}urea]
post-moisture balance XRPD (resulting material) [1]: Form B
post-moisture balance XRPD (resulting material) ([1]; listed as B): FORM B
weight loss upon initial equilibration ([1]; equilibrium at 5% RH): about 0.6%
water corresponding to the mass gain on sorption ([1]; from 5% to 95% RH): about 1.2 molar equivalents of water
weight gain on sorption ([1]; from 5 to 95% RH): about 3.6%
water corresponding to the weight gain on sorption ([1]; from 5 to 95% RH, listed as B): ~1.2 MOLES OF WATER FROM ~5 TO ~95%
weight gain on sorption ([1]; from 5 to 95% RH, listed as B): ~3.6% WEIGHT GAIN, CORRESPONDING TO
weight loss on desorption [1]: about 3.6%
weight loss on desorption ([1]; listed as B): RH, ~3.2% WEIGHT LOSS FROM ~95 TO ~5%
XRPD Result after stress [2]: Form B
weight change [2]: no substantial weight change
weight change ([2]; listed as B): 2 and 4 days: no weight
APPROXIMATE SOLUBILITY ([3]; 2,2,2-TRIFLUOROETHANOL, 67 ° C.): 53 mg/mL
APPROXIMATE SOLUBILITY ([3]; 2,2,2-TRIFLUOROETHANOL, AMBIENT): 52 mg/mL
APPROXIMATE SOLUBILITY ([3]; 2-BUTANONE (MEK), 62 ° C.): <1 mg/mL
APPROXIMATE SOLUBILITY ([3]; 2-BUTANONE (MEK), AMBIENT): <1 mg/mL
APPROXIMATE SOLUBILITY ([3]; ACETONE, 54 ° C.): <1 mg/mL
APPROXIMATE SOLUBILITY ([3]; ACETONE, AMBIENT): <1 mg/mL
APPROXIMATE SOLUBILITY ([3]; ACETONE:WATER 50:50, AMBIENT): 13 mg/mL
APPROXIMATE SOLUBILITY ([3]; ACETONITRILE, 60 ° C.): <1 mg/mL
APPROXIMATE SOLUBILITY ([3]; ACETONITRILE, AMBIENT): <1 mg/mL
APPROXIMATE SOLUBILITY ([3]; ACETONITRILE:WATER 50:50, AMBIENT): 51 mg/mL
APPROXIMATE SOLUBILITY ([3]; DICHLOROMETHANE, AMBIENT): <1 mg/mL
APPROXIMATE SOLUBILITY ([3]; DIOXANE:WATER 50:50, 62 ° C.): 23 mg/mL
APPROXIMATE SOLUBILITY ([3]; ETHANOL, 60 ° C.): <2 mg/mL
APPROXIMATE SOLUBILITY ([3]; ETHANOL, AMBIENT): <1 mg/mL
APPROXIMATE SOLUBILITY ([3]; ETHANOL:WATER 50:50, AMBIENT): 13 mg/mL
APPROXIMATE SOLUBILITY ([3]; ETHYL ACETATE, AMBIENT): <1 mg/mL
APPROXIMATE SOLUBILITY ([3]; ISOPROPANOL, 63 ° C.): <1 mg/mL
APPROXIMATE SOLUBILITY ([3]; ISOPROPANOL, AMBIENT): <1 mg/mL
APPROXIMATE SOLUBILITY ([3]; ISOPROPANOL:WATER 20:80, 62 ° C.): 54 mg/mL
APPROXIMATE SOLUBILITY ([3]; ISOPROPANOL:WATER 20:80, AMBIENT): 5 mg/mL
APPROXIMATE SOLUBILITY ([3]; METHANOL, 62 ° C.): 2 mg/mL
APPROXIMATE SOLUBILITY ([3]; METHANOL, AMBIENT): 1 mg/mL
APPROXIMATE SOLUBILITY ([3]; NITROMETHANE, 64 ° C.): <1 mg/mL
APPROXIMATE SOLUBILITY ([3]; NITROMETHANE, AMBIENT): <1 mg/mL
APPROXIMATE SOLUBILITY ([3]; P-DIOXANE, 63 ° C.): <1 mg/mL
APPROXIMATE SOLUBILITY ([3]; P-DIOXANE, AMBIENT): <1 mg/mL
APPROXIMATE SOLUBILITY ([3]; P-DIOXANE:WATER 50:50, AMBIENT): 6 mg/mL
APPROXIMATE SOLUBILITY ([3]; TETRAHYDROFURAN, 64 ° C.): <1 mg/mL
APPROXIMATE SOLUBILITY ([3]; TETRAHYDROFURAN, AMBIENT): <1 mg/mL
APPROXIMATE SOLUBILITY ([3]; TETRAHYDROFURAN:WATER 50:50, AMBIENT): 24 mg/mL
APPROXIMATE SOLUBILITY ([3]; TRIFLUOROTOLUENE, AMBIENT): <1 mg/mL
solubility ([3]; 68 °C, 68 ° C.): < 3000 µg/mL
solubility ([3]; AMBIENT): ≥ 1000 µg/mL
XRPD RESULT after mechanical stress ([4]; GRIND WITH MORTAR AND PESTLE, WATER, 1 MIN): B + SMALL PEAK
XRPD RESULT after mechanical stress ([4]; MILLING, 2,2,2-TRIFLUOROETHANOL, 10 MIN): B + LARGE PEAK
